Test results from patent US10188108B2, “Fused bicyclic heterocycle derivatives as pesticides” (BAYER CROPSCIENCE AKTIENGESELLSCHAFT, priority 2015, dated 2019).
Where two headings read alike, the source gives them in different places.

Key:
Spodoptera frugiperda = Spodoptera frugiperda - spray test; format: in vivo; settings: 500 g/ha, after 7 days, caterpillars on maize leaf discs
Procedure: (§1) • Solvent: 78.0 parts by weight of acetone • 1.5 parts by weight of dimethylformamide • Emulsifier: alkylaryl polyglycol ether
(§2) To produce a suitable preparation of active compound, 1 part by weight of active compound is dissolved using the stated parts by weight of solvent and made up with water containing an emulsifier concentration of 1000 ppm until the desired concentration is attained. To produce further test concentrations, the preparation is diluted with emulsifier-containing water.
Leaf discs of maize (Zea mays) are sprayed with an active compound preparation of the desired concentration and, after drying, populated with caterpillars of the armyworm (Spodoptera frugiperda).
After 7 days, the efficacy in % is determined. 100% means that all the caterpillars have been killed; 0% means that no caterpillars have been killed.

[1] = log P by HPLC on a reversed-phase column (C 18), EEC Directive 79/831 Annex V.A8; format: physicochemical; settings: for LOGP_NEUTRAL: pH 7.8, 0.001 molar aqueous ammonium hydrogencarbonate/acetonitrile; for chromatographic logP: reversed-phase HPLC column (C 18)
Procedure: The log P values are measured according to EEC Directive 79/831 Annex V.A8 by HPLC (high-performance liquid chromatography) on a reversed-phase column (C 18). Temperature: 55° C.
The LC-MS determination in the acidic range is effected at pH 2.7 using 0.1% aqueous formic acid and acetonitrile (contains 0.1% formic acid) as eluents; linear gradient from 10% acetonitrile to 95% acetonitrile. Called log P (HCOOH) in the table.
LC-MS determination in the neutral range is effected at pH 7.8 with 0.001 molar aqueous ammonium hydrogencarbonate solution and acetonitrile as eluents; linear gradient from 10% acetonitrile to 95% acetonitrile. Called log P (neutral) in the table.
Calibration is carried out using unbranched alkan-2-ones (having 3 to 16 carbon atoms) with known log P values (log P values determined on the basis of the retention times by linear interpolation between two successive alkanones).

Phaedon cochleariae = Phaedon cochleariae - spray test; format: in vivo; settings: after 7 days, larvae on Chinese cabbage leaf discs
Procedure: as §1, §2
After 7 days, the efficacy in % is determined. 100% means that all the beetle larvae have been killed; 0% means that no beetle larvae have been killed.

[2] = acidic range, pH 2.7, 0.1% aqueous formic acid/acetonitrile, 55° C.
[3] = acidic range, pH 2.7, 0.1% aqueous formic acid/acetonitrile, 55° C., read-out: LOGP_HCOOH
[4] = neutral range, pH 7.8, value in preparation example text, read-out: log P (neutral)
[5] = acidic range, pH 2.7, value in preparation example text, read-out: log P (acidic)

Row | Compound | LOGP_HCOOH [1, 2] | LOGP_NEUTRAL ([1]; neutral range, 55° C.) | efficacy (Spodoptera frugiperda) [%] | efficacy (Phaedon cochleariae; 500 g/ha) [%] | other results
1 | CCSc1c(-c2nc3cc(C(F)(F)F)ncc3n2C)nc2ccc(Cl)cn12 [Example I-3] | 3.59 | – | 100 | – | –
2 | CCSc1c(-c2nc3cc(C(F)(F)F)ncc3n2C)nc2ccc(C(F)(F)F)cn12 [Example I-5] | 3.81 | 3.75 | 100 | – | –
3 | CC[S+]([O-])c1c(-c2nc3cc(C(F)(F)F)ncc3n2C)nc2ccc(C(F)(F)F)cn12 (stereo not shown) [Example I-8] | 3.25 | – | 100 | 100 | –
4 | CCSc1c(-c2nc3cc(C(F)(F)F)ccc3n2C)nc2ccccn12 [Example I-9] | 3.25 | 3.41 | – | 100 | –
5 | CCS(=O)(=O)c1c(-c2nc3cc(C(F)(F)F)ccc3o2)nc2ccccn12 [Example I-12] | 2.92 | 2.94 | 83 | 83 | –
6 | CCSc1c(-c2nc3cc(C(F)(F)F)ncc3n2C)nc2c(C(F)(F)F)cccn12 [Example I-13] | 1.40 | 3.71 | 100 | 100 | –
7 | CCSc1c(-c2nc3cc(C(F)(F)F)ncc3n2C)nc2c(Cl)cccn12 [Example I-14] | 3.33 | 3.34 | – | – | –
8 | CCSc1cccn2c(SCC)c(-c3nc4cc(C(F)(F)F)ncc4n3C)nc12 [Example I-15] | 3.99 | 3.93 | – | – | –
9 | CCSc1c(-c2nc3cc(C(F)(F)F)ncc3n2C)nc2cc(C(F)(F)F)ccn12 [Example I-16] | 3.80 | 3.80 | 100 | 100 | –
10 | CCSc1c(-c2nc3cc(C(F)(F)F)ncc3n2C)nc2cccc(C(F)(F)F)n12 [Example I-20] | 3.50 | – | – | – | –
11 | CCS(=O)(=O)c1c(-c2nc3cc(C(F)(F)F)ncc3n2C)nc2c(C(F)(F)F)cccn12 [Example I-24] | 2.92 | 2.90 | 100 | 100 | –
12 | CC[S+]([O-])c1c(-c2nc3cc(C(F)(F)F)ncc3n2C)nc2c(C(F)(F)F)cccn12 (stereo not shown) [Example I-25] | 3.29 | 3.21 | 100 | 100 | –
13 | CCSc1c(-c2nc3cc(C(F)(F)F)ccc3n2C)nc2cccc(C)n12 [Example I-26] | 3.35 | – | – | 83 | –
14 | CCSc1c(-c2nc3cc(C(F)(F)F)ccc3n2C)nc2cccc(C(F)(F)F)n12 [Example I-27] | 4.09 | – | – | – | –
15 | CCSc1c(-c2nc3cc(C(F)(F)F)ccc3n2C)nc2ccc(C(F)(F)F)cn12 [Example I-28] | 4.47 | – | 100 | – | –
16 | CCSc1c(-c2nc3cc(C(F)(F)F)ccc3n2C)nc2ccc(Cl)cn12 [Example I-29] | 4.12 | – | 100 | 100 | –
17 | CCSc1c(-c2nc3cc(C(F)(F)F)ccc3n2C)nc2cc(C(F)(F)F)ccn12 [Example I-30] | 4.50 | – | 100 | 83 | –
18 | CCSc1cccc2nc(-c3nc4cc(C(F)(F)F)ccc4n3C)c(SCC)n12 [Example I-31] | 3.95 | – | – | – | –
19 | CCSc1ccn2c(SCC)c(-c3nc4cc(C(F)(F)F)ccc4n3C)nc2c1 [Example I-32] | 4.23 | – | – | – | –
20 | CCS(=O)(=O)c1c(-c2nc3cc(C(F)(F)F)ccc3n2C)nc2ccc(C(F)(F)F)cn12 [Example I-36] | 3.70 | – | 100 | 100 | –
21 | Cn1c(-c2nc3ccccn3c2Cl)nc2cc(C(F)(F)F)ncc21 [Example V-1, 2-(3-Chloroimidazo[1,2-a]pyridin-2-yl)-3-methyl-6-(trifluoromethyl)imidazo[4,5-c]pyridine] | – | – | – | – | chromatographic logP [1, 4]: 2.38
22 | O=C(O)c1nc2cc(C(F)(F)F)ccn2c1Cl [III-1, 3-Chloro-7-(trifluoromethyl)imidazo[1,2-a]pyridine-2-carboxylic acid] | – | – | – | – | chromatographic logP [1, 5]: 1.5
23 | CCOC(=O)c1nc2ccccn2c1SCC [XXII-1, Ethyl 3-(ethylsulphanyl)imidazo[1,2-a]pyridine-2-carboxylate] | – | – | – | – | chromatographic logP [1, 4]: 2.05
24 | CCS(=O)(=O)c1c(C(=O)O)nc2ccccn12 [XXIII-1, 3-(Ethylsulphonyl)imidazo[1,2-a]pyridine-2-carboxylic acid] | – | – | – | – | chromatographic logP [1, 5]: 0.54
25 | CCOC(=O)c1nc2ccccn2c1S(=O)(=O)CC [XXIV-1, Ethyl 3-(ethylsulphonyl)imidazo[1,2-a]pyridine-2-carboxylate] | – | – | – | – | chromatographic logP [1, 4]: 1.52
26 | CCSc1c(C(=O)Nc2cc(C(F)(F)F)cnc2Cl)nc2ccccn12 [XXVI-1, N-[2-Chloro-5-(trifluoromethyl)pyridin-3-yl]-3-(ethylsulphanyl)imidazo[1,2-a]pyridine-2-carboxamide] | – | – | – | – | chromatographic logP [1, 4]: 4.39

Second part, led by results:

Row | LOGP_HCOOH [1, 2] | LOGP_NEUTRAL ([1]; neutral range, 55° C.) | Compound | efficacy (Spodoptera frugiperda) [%] | efficacy (Phaedon cochleariae; 500 g/ha) [%] | other results
27 | 3.41 | – | CCSc1c(-c2nc3cc(C(F)(F)F)ccc3n2C)nc2cc(C)ccn12 [Example I-37] | – | – | –
28 | 3.57 | – | CCSc1c(-c2nc3cc(C(F)(F)F)ccc3n2C)nc2ccc(C)cn12 [Example I-38] | – | – | –
29 | 2.30 | 2.29 | CCS(=O)(=O)c1cccn2c(S(=O)(=O)CC)c(-c3nc4cc(C(F)(F)F)ncc4n3C)nc12 [Example I-39] | 100 | 100 | –
30 | – | 2.59 | CCS(=O)(=O)c1c(-c2nc3cc4c(cc3[nH]2)OC(F)(F)O4)nc2ccccn12 [Example I-40, 6-[3-(Ethylsulphonyl)imidazo[1,2-a]pyridin-2-yl]-2,2-difluoro-5H-[1,3]dioxolo[4,5-f]benzimidazole] | – | 100 | chromatographic logP [1, 3]: 2.51; chromatographic logP [1, 4]: 2.59
31 | 3.34 | – | CCS(=O)(=O)c1c(-c2nc3cc(C(F)(F)F)ccc3n2C)nc2ccc(Cl)cn12 [Example I-42] | 100 | 100 | –
32 | 3.60 | – | CCS(=O)(=O)c1c(-c2nc3cc(C(F)(F)F)ccc3s2)nc2ccccn12 [Example I-43] | – | – | efficacy (Phaedon cochleariae; 100 g/ha): 83%
33 | 3.20 | 3.22 | CCSc1c(-c2nc3cc(C(F)(F)F)ncc3n2C)nc2ccc(C)cn12 [Example I-45] | – | – | –
34 | 3.21 | 3.20 | CCS(=O)(=O)c1c(-c2nc3cc(C(F)(F)F)cnc3s2)nc2ccccn12 [Example I-51] | – | – | –
35 | 2.54 | 2.48 | CC[S+]([O-])c1c(-c2nc3cc(C(F)(F)F)ncc3n2C)nc2ccc(OC)cn12 (stereo not shown) [Example I-55] | – | – | –
36 | 2.89 | – | CCS(=O)(=O)c1c(-c2nc3cc(C(F)(F)F)cnc3o2)nc2ccc(C)cn12 [Example I-56] | – | – | –
37 | 4.11 | – | CCSc1c(-c2nc3cc(C(F)(F)F)cnc3o2)nc2cccc(C(F)(F)F)n12 [Example I-57] | – | – | –
38 | 4.14 | – | CCSc1c(-c2nc3cc(C(F)(F)F)cnc3o2)nc2ccc(C(F)(F)F)cn12 [Example I-58] | – | – | –
39 | – | 3.15 | CCSc1c(-c2nc3cc(C(F)(F)F)cnc3o2)nc2ccccn12 [Example I-60, 2-[3-(Ethylsulphanyl)imidazo[1,2-a]pyridin-2-yl]-6-(trifluoromethyl) [1,3]oxazolo[5,4-b]pyridine] | – | – | chromatographic logP [1, 3]: 3.2; chromatographic logP [1, 4]: 3.15
